Experimental data as given in article PMC3679007 (PLoS ONE, 2013).
“And” between values parts separate entries of the source, which are not always exact repeats. Equal values may be shown once. Read-outs that look alike come from different tables or passages of the source.

Legend:
[1] = target: A/chicken/Wates/126/2005 neuraminidase (clade 2.1 reference) (Influenza A virus (H5N1), UniProt Q1W1F4); format: biochemical, HPAI H5N1 avian influenza virus; conditions: read-out: IC50, Mean (SD)
[2] = target: A/chicken/Bangli/BBVD-563/2007 neuraminidase (clade 2.1 wild type) (Influenza A virus, UniProt F1SW80); format: biochemical, HPAI H5N1 avian influenza virus
[3] = target: A/chicken/Cambodia/CMB07.71LC1/2007 neuraminidase (Influenza A virus, UniProt E1B5P8); format: biochemical, HPAI H5N1 avian influenza virus
[4] = target: A/chicken/Cambodia/CMB07.71LC3/2007 neuraminidase (Influenza A virus (A/chicken/Cambodia/CMB07.71LC3/2007(H5N1)), UniProt E1B5P8); format: biochemical, HPAI H5N1 avian influenza virus
[5] = target: A/chicken/Suphanburi/2509/2004 neuraminidase (Influenza A virus (H5N1), UniProt Q5SDA6); format: biochemical, HPAI H5N1 avian influenza virus
[6] = system: A/chicken/Bangli/BBVD-562/2007, A/chicken/West Java Tangerang/PTB6/2008, A/chicken/West Java/Tja-31/2008, A/chicken/Payakumbuh/BPPVRII-307/2007 neuraminidases; format: biochemical
[7] = in vivo; cited from earlier work
[8] = target: clade 1 isolates from Viet Nam and Cambodia (neuraminidase); conditions: cited from earlier work
[9] = system: clade 2.1 viruses circulating in Indonesia (neuraminidase); conditions: cited from earlier work
[10] = target: A/chicken/Saraburi/10713/2005 neuraminidase (Influenza A virus (A/chicken/Saraburi/10713/2005(H5N1)), UniProt Q2LDC8); format: biochemical, HPAI H5N1 avian influenza virus
[11] = target: A/duck/Cambodia/CMB07.72/2007 neuraminidase (Influenza A virus, UniProt E1B5P8); format: biochemical, HPAI H5N1 avian influenza virus
[12] = target: clade 1.1 HPAI H5N1 isolates from Thailand (neuraminidase) (Influenza A virus, UniProt Q5SDA6); format: biochemical, HPAI H5N1 avian influenza virus; conditions: read-out: IC50, Mean (SD)
[13] = target: clade 2.1 HPAI H5N1 isolates from Indonesia (neuraminidase) (Influenza A virus, UniProt F5HQR3); format: biochemical, HPAI H5N1 avian influenza virus
[14] = target: A/chicken/Cambodia/CMB07.71LC4/2007 neuraminidase (Influenza A virus (A/chicken/Cambodia/CMB07.71LC4/2007(H5N1)), UniProt E1B5P8); format: biochemical, HPAI H5N1 avian influenza virus
[15] = target: A/chicken/Cambodia/CMB07.71LC2/2007 neuraminidase (Influenza A virus, UniProt E1B5P8); format: biochemical, HPAI H5N1 avian influenza virus
[16] = target: A/chicken/Vietnam/08/2004 neuraminidase (clade 1.1 wild type) (Influenza A virus (H5N1), UniProt Q6DPL2); format: biochemical, HPAI H5N1 avian influenza virus
[17] = read-out: 60 min IC50, Preincubation step (+)
[18] = read-out: 60 min IC50, Preincubation step (−)

## CCOC(=O)C1=C[C@@H](OC(CC)CC)[C@H](NC(C)=O)[C@@H](N)C1 [Oseltamivir, oseltamivir]
[1]
  IC50: 15.9 nM and 19.8 nM
[2]
  Binding kinetics (in words): partial loss of slow binding, and faster dissociation
[2]; [17]
  IC50: 19.6 nM
[2]; [18]
  IC50: 21.4 nM
[3]
  IC50: 0.77 nM
[4]
  IC50: 0.51 nM
[5]
  IC50: 0.61 nM
[6]
  Binding kinetics (in words): no longer slow binding
[7]
  Levels in plasma: 400 to 1200 nM
  Levels in saliva: less than 5 % of plasma levels
[8]
  IC50: 0.5 nM
[9]
  IC50: 11 nM and 11.5 nM
[10]
  IC50: 0.68 nM
[11]
  IC50: 0.65 nM
[12]
  IC50: 0.97 nM
[13]; read-out: Extreme High Outliers, IC50 cut-off
  IC50: > 63.7 nM
[13]; read-out: IC50, IQR (25th-75th percentile)
  IC50: 21.2 to 28.2 nM and 20.4 to 26.4 nM
[13]; read-out: IC50, Median
  IC50: 24.9 nM and 24.4 nM
[13]; read-out: IC50, range
  IC50: 10.6 to 349 nM and 12.6 to 62.4 nM
[13]; read-out: IC50s of extreme outliers
  IC50: 63 to 350 nM
[13]; read-out: IC50s of many of the outliers
  IC50: > 50 nM
[13]; read-out: Mean and median IC50
  IC50: ~25 nM
[13]; read-out: Median IC50
  IC50: 25 nM
[13]; read-out: Mild High Outliers, IC50 cut-off
  IC50: > 42.4 nM
[14]
  IC50: 0.75 nM
[15]
  IC50: 0.78 nM

## CCC(CC)[C@H](NC(C)=O)[C@@H]1[C@H](O)[C@@H](C(=O)O)C[C@H]1N=C(N)N [Peramivir, peramivir]
[2]
  Ratio (−)/(+) of 60 min IC50s: 9
[2]; [17]
  IC50: 0.6 nM
[2]; [18]
  IC50: 5.4 nM
[16]
  Ratio (−)/(+) of 60 min IC50s: 8.9
[16]; [17]
  IC50: 0.7 nM
[16]; [18]
  IC50: 6.2 nM
[6]
  Binding kinetics (in words): None of these viruses demonstrated loss of slow binding

## CC(=O)N[C@H]1[C@H]([C@H](O)[C@H](O)CO)OC(C(=O)O)=C[C@@H]1N=C(N)N [Zanamivir, zanamivir]
[6]
  Binding kinetics (in words): None of these viruses demonstrated loss of slow binding
[13]
  Extreme High Outliers, number of viruses: 0 (>7.2) and 0 (>5.6)
